From patent publication US9775843B2, “Treatment and/or prophylaxis of TSPO mediated diseases and/or disorders” (GRÜNENTHAL GMBH, priority 2012, dated 2017) come the findings set out here.

This assay addresses T1, rat peripheral BZD receptor (Rattus norvegicus, UniProt P16257).
T1 construct: rat heart membranes and [3H]PK 11195; from tissue; host or cells: rat heart membrane homogenates
Nature of the assay: radioligand binding test, [3H]PK 11195, rat heart membranes. The conditions noted are these: 10 μM test compound; 0.2 nM [3H]PK 11195; rat heart membrane homogenates; 15 min at 22° C. As to the method: Evaluation of the in vitro affinity of test substances for the rat peripheral BZD receptor was performed according to Le Fur et al. (1983). Life Sci., 33: 449-457. For this purpose, rat heart membranes and [3H]PK 11195 (1-(2-chlorophenyl)-N-methyl-N-(1-methylpropyl)-3-isoquinolinecarboxamide) were used in a radioligand binding test system.
In detail, membrane homogenates of heart (20 μg protein) are incubated for 15 min at 22° C. with 0.2 nM [3H]PK 11195 in the absence or presence of the test compound in a buffer containing 50 mM Tris-HCl (pH 7.4) and 10 mM MgCl2 (96-well plate format). Compound addition is 100× solution in solvent. Nonspecific binding is determined in the presence of 10 μM PK 11195. Following incubation, the samples are filtered rapidly under vacuum through glass fiber filters (GF/B, Packard) presoaked with 0.3% PEI and rinsed several times with ice-cold 50 mM Tris-HCl using a 96-sample cell harvester (Unifilter, Packard). The filters are dried, then counted for radioactivity in a scintillation counter (Topcount, Packard) using a scintillation cocktail (Microscint 0, Packard). The results are expressed as a percent inhibition of the control radioligand specific binding.
The standard reference compound is PK 11195, which is tested in each experiment concurrently with the test compounds.
For analysis, the specific ligand binding to the receptors is defined as the difference between the total binding and the nonspecific binding determined in the presence of an excess of unlabelled ligand. The results are expressed as a percent of control specific binding ((measured specific binding/control specific binding)×100) obtained in the presence of the test compounds.

As to `Cc1c(C(=O)NCc2cccc(F)c2)c(C(C)C)nc2cc(C(F)(F)F)ccc12` [compound 1, N-[(3-Fluorophenyl)-methyl]-2-isopropyl-4-methyl-7-(trifluoromethyl)-quinoline-3-carboxylic acid amide], the inhibition – broadly, the change of the read-out against control, counted positive when it falls – at 10 µM came to 87%.
In the case of `CCSc1nc(N2CCOCC2)cc(C)c1C(=O)NCCCC(C)(C)C` [compound 2, N-(4,4-Dimethyl-pentyl)-2-ethylsulfanyl-4-methyl-6-morpholin-4-yl-pyridine-3-carboxylic acid amide] it was 43%.
The result for `CCSc1nc(N2CCOCC2)cc(C)c1C(=O)NCc1ccc(Cl)cc1` [compound 3, N-[(4-Chlorophenyl)-methyl]-2-ethylsulfanyl-4-methyl-6-morpholin-4-yl-pyridine-3-carboxylic acid amide] reads 91%.
As for `COc1nc(N2CCOCC2)cc(C)c1C(=O)NCc1ccc(Cl)cc1` [compound 4, N-[(4-Chlorophenyl)-methyl]-2-methoxy-4-methyl-6-morpholin-4-yl-pyridine-3-carboxylic acid amide], the inhibition at 10 µM came out at 49%.
In the case of `O=C(NCc1ccc(F)cc1)c1cccnc1SCCC(F)(F)c1ccc(F)cc1` [compound 5, 2-[[3,3-Difluoro-3-(4-fluorophenyl)-propyl]sulfanyl]-N-[(4-fluorophenyl)-methyl]-pyridine-3-carboxylic acid amide] it was 102%; in that of `O=C(NCC1CC2CCC1C2)c1cccnc1SCCC(F)(F)c1ccc(F)cc1` (stereo not drawn) [compound 6, N-(5-Bicyclo[2.2.1]heptanyl-methyl)-2-[[3,3-difluoro-3-(4-fluorophenyl)-propyl]sulfanyl]-pyridine-3-carboxylic acid amide], 99%; in that of `Cc1cc(N2CCOCC2)nc(C2CC2)c1C(=O)NCc1ccc(Cl)cc1` [compound 7, N-[(4-Chlorophenyl)-methyl]-2-cyclopropyl-4-methyl-6-morpholin-4-yl-pyridine-3-carboxylic acid amide], 57%.
In the case of `COc1nc(N2CCOCC2)cc(C)c1C(=O)NCc1cccc(F)c1` [compound 8, N-[(3-Fluorophenyl)-methyl]-2-methoxy-4-methyl-6-morpholin-4-yl-pyridine-3-carboxylic acid amide] it was 103%.
Take `COc1nc(N2CCOCC2)cc(C)c1C(=O)NCc1ccc(F)cc1` [compound 9, N-[(4-Fluorophenyl)-methyl]-2-methoxy-4-methyl-6-morpholin-4-yl-pyridine-3-carboxylic acid amide]: the inhibition at 10 µM came out at 53%.
In the case of `CCCc1nc(N2CCOCC2)cc(C)c1C(=O)NCc1cccc(F)c1` [compound 10, N-[(3-Fluorophenyl)-methyl]-4-methyl-6-morpholin-4-yl-2-propyl-pyridine-3-carboxylic acid amide], the inhibition at 10 µM was 91%.
In the case of `Cc1cc(N2CCOCC2)nc(C2CC2)c1C(=O)NCc1ccc(F)cc1` [compound 11, 2-Cyclopropyl-N-[(4-fluorophenyl)-methyl]-4-methyl-6-morpholin-4-yl-pyridine-3-carboxylic acid amide] it was 87%; in that of `CC(C)CCNC(=O)c1cccnc1SCCC(F)(F)c1ccc(F)c(F)c1` [compound 12, 2-[[3-(3,4-Difluoro-phenyl)-3,3-difluoro-propyl]-sulfanyl]-N-(3-methyl-butyl)-pyridine-3-carboxylic acid amide], 97%; in that of `CCSc1nc(N2CCOCC2)cc(C)c1C(=O)NCc1cccc(F)c1` [compound 13, 2-Ethylsulfanyl-N-[(3-fluorophenyl)-methyl]-4-methyl-6-morpholin-4-yl-pyridine-3-carboxylic acid amide], 95%.
In the case of `Cc1cc(N2CCOCC2)nc(C2CC2)c1C(=O)NCc1cccc(F)c1` [compound 15, 2-Cyclopropyl-N-[(3-fluorophenyl)-methyl]-4-methyl-6-morpholin-4-yl-pyridine-3-carboxylic acid amide] it was 90%; in that of `CC(C)CCNC(=O)c1cccnc1SCCC(F)(F)c1ccc(F)cc1` [compound 16, 2-[[3,3-Difluoro-3-(4-fluorophenyl)-propyl]sulfanyl]-N-(3-methyl-butyl)-pyridine-3-carboxylic acid amide], 96%.
